From the Kinase Knowledgebase extract (Sharma et al. 2016)

Key:
[1] = target: EGFR (Human), P00533 [T790M/L858R]; experiment: Enzyme Assay
[2] = target: EGFR (human), P00533 [L858R]; experiment: Enzyme Assay
[3] = target: EGFR (human), P00533 [WT]
Chain of EGFR (human), P00533 [WT] (P00533 whole entry, looked up): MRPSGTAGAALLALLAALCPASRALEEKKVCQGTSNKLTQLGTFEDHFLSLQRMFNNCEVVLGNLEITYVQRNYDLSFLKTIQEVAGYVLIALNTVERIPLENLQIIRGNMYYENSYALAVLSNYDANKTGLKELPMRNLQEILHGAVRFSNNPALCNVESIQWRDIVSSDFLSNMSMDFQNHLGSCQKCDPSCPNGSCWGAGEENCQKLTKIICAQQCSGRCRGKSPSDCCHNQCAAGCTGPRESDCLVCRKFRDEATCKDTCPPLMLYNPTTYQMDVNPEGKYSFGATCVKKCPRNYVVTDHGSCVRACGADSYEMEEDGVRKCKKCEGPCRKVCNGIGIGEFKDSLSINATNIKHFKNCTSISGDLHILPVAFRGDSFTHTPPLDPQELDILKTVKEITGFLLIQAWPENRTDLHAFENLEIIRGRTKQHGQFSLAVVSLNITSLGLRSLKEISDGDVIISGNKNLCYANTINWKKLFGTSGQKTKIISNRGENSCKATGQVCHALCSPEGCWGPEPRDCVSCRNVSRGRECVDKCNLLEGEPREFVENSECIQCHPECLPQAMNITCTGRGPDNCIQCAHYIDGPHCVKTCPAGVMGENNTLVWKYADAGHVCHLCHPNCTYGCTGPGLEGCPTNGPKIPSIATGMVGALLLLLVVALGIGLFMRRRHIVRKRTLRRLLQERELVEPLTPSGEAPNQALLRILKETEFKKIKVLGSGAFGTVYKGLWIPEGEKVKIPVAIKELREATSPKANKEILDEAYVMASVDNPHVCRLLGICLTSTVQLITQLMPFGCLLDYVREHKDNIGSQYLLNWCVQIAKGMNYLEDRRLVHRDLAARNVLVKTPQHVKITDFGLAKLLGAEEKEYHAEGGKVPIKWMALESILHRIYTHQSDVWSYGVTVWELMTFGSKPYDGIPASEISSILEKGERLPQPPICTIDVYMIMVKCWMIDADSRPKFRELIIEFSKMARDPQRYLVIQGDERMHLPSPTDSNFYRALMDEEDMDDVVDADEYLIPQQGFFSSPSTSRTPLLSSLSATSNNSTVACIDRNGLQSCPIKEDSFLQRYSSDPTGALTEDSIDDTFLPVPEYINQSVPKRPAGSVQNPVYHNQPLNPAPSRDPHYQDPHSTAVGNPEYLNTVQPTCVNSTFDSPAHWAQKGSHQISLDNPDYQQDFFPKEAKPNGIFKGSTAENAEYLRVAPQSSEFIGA

Chain of EGFR (human), P00533 [L858R] (P00533 whole entry L858R, looked up): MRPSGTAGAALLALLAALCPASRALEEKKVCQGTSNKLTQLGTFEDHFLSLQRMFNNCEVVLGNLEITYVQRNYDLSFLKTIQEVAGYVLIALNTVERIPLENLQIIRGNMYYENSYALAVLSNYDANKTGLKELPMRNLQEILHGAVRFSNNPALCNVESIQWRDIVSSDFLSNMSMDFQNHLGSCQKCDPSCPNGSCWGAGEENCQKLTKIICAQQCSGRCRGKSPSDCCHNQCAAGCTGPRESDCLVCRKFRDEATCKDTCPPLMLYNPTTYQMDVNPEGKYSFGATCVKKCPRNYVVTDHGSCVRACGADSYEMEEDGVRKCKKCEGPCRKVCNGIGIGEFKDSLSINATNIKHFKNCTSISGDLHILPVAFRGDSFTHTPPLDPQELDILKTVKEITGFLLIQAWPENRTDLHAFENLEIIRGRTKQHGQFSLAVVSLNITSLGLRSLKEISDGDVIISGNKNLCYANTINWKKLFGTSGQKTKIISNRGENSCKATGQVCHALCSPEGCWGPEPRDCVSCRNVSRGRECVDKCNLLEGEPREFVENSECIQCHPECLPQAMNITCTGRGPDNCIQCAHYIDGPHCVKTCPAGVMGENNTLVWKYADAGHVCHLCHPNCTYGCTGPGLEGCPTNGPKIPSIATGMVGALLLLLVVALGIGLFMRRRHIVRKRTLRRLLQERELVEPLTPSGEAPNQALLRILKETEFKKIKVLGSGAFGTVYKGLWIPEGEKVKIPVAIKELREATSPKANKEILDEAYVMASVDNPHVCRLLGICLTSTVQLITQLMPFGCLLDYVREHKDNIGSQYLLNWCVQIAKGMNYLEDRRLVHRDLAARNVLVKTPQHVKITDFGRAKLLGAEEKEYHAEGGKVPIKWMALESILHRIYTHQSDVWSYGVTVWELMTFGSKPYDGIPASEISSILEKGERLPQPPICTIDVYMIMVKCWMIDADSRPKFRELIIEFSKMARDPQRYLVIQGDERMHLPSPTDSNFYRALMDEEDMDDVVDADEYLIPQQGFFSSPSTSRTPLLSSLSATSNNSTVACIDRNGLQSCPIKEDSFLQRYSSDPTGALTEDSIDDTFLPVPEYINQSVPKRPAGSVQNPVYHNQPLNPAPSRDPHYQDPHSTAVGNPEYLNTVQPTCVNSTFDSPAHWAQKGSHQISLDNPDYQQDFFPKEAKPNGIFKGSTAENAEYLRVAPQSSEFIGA
Chain of EGFR (Human), P00533 [T790M/L858R] (P00533 whole entry T790M/L858R, looked up): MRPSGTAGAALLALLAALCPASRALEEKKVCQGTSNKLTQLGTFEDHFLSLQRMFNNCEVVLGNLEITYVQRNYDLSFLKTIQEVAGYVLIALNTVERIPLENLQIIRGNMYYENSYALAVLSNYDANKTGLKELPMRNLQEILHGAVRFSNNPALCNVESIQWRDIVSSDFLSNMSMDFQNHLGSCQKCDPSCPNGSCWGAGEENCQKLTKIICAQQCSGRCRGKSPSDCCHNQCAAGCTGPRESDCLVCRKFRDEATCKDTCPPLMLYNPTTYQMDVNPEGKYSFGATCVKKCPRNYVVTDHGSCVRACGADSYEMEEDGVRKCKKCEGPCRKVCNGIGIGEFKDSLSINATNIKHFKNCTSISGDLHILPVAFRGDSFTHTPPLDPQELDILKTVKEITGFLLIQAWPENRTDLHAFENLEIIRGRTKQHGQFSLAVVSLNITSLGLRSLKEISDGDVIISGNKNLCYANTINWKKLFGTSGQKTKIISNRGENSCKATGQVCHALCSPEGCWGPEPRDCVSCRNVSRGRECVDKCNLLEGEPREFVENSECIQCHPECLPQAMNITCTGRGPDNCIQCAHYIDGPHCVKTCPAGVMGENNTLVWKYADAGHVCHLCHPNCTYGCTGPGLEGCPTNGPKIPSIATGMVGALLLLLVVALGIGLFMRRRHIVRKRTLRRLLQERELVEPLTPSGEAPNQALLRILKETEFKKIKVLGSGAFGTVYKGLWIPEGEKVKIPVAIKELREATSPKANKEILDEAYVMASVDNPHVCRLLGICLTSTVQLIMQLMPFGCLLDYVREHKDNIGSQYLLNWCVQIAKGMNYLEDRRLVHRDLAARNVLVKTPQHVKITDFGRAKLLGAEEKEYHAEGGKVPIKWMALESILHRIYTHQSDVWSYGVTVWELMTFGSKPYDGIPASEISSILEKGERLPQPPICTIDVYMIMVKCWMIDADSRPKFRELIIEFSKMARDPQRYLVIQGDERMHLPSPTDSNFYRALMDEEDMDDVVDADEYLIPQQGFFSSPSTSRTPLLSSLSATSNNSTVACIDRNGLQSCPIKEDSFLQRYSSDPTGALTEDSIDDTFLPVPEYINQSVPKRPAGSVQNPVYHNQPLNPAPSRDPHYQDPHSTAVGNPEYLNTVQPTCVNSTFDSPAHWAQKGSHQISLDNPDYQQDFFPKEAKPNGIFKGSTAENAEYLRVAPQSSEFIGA

SMILES: CN1CCN(Cc2ccc(C(=O)N[C@@H]3[C@H]4Oc5ccc(Oc6ccnc7c6COC(=O)N7)cc5[C@@H]34)cc2C(F)(F)F)CC1
- IC50 [1]: 0.49 nM
- IC50 [2]: 0.29 nM

SMILES: CN(C)[C@H]1CCN(Cc2ccc(C(=O)N[C@@H]3[C@H]4Oc5ccc(Oc6ccnc7c6CCC(=O)N7)cc5[C@@H]34)cc2C(F)(F)F)C1
- IC50 [1]: 0.3 nM
- IC50 [2]: 0.3 nM

SMILES: CN1CCN(CCOc2ccc(C(=O)N[C@@H]3[C@H]4Oc5ccc(Oc6ccnc7c6CCC(=O)N7)cc5[C@@H]34)cc2C(F)(F)F)CC1
- IC50 [1]: 32 nM
- IC50 [2]: 12 nM

SMILES: Cc1cc(C(=O)N[C@@H]2[C@H]3Oc4ccc(Oc5ccnc6c5CCC(=O)N6)cc4[C@@H]23)ccc1CN1CCN(C)CC1
- IC50 [1]: 3.1 nM
- IC50 [2]: 0.5 nM
- IC50 [3]: 1.5 nM

SMILES: O=C(C=Cc1cccc(C(F)(F)F)c1)N[C@@H]1[C@H]2Oc3ccc(Oc4ccnc5c4CCC(=O)N5)cc3[C@@H]12
- IC50 [1]: 1140 nM
- IC50 [2]: 68 nM

SMILES: CN(C)[C@@H]1CCN(Cc2ccc(C(=O)N[C@@H]3[C@H]4Oc5ccc(Oc6ccnc7c6CCC(=O)N7)cc5[C@@H]34)cc2C(F)(F)F)C1
- IC50 [1]: 3.1 nM
- IC50 [2]: 0.67 nM

SMILES: O=C1CCc2c(Oc3ccc4c(c3)[C@H]3[C@H](NC(=O)c5ccc(CN6CCN(CCO)CC6)c(C(F)(F)F)c5)[C@H]3O4)ccnc2N1
- IC50 [1]: 0.76 nM
- IC50 [2]: 0.26 nM

SMILES: CCCCCCCCCCCC(=O)N[C@@H]1[C@H]2Oc3ccc(Oc4ccnc5c4CCC(=O)N5)cc3[C@@H]12
- IC50 [3]: 8.9 nM

SMILES: CN(C)C1CCN(Cc2ccc(C(=O)N[C@@H]3[C@H]4Oc5ccc(Oc6ccnc7c6CCC(=O)N7)cc5[C@@H]34)cc2C(F)(F)F)CC1
- IC50 [1]: 0.42 nM
- IC50 [2]: 0.27 nM
